Data as given in patent US11839689B2, “Formulations of enzalutamide” (Astellas Pharma Inc., priority 2012, dated 2023).

Assays:
Type in all cases: physicochemical
[1] = Microcentrifuge dissolution test in Model Fasted Duodenal Solution; details: for Enzalutamide Concentration, 0 min / Enzalutamide Concentration, 4 min / Enzalutamide Concentration, 10 min / Enzalutamide Concentration, 20 min / Enzalutamide Concentration, 40 min / Enzalutamide Concentration, 90 min / Enzalutamide Concentration, 1200 min: MFDS pH 6.5; for Enzalutamide Concentration, 0 min / Enzalutamide Concentration, 4 min / Enzalutamide Concentration, 10 min / Enzalutamide Concentration, 20 min / Enzalutamide Concentration, 40 min / Enzalutamide Concentration, 90 min / Enzalutamide Concentration, 1200 min / AUC90 (area under the curve at 90 minutes) / Cmax, 90 (maximum drug concentration through 90 minutes): dose 200 μg/ml; for AUC90 (area under the curve at 90 minutes) / Cmax, 90 (maximum drug concentration through 90 minutes): Table 4.2, MFDS
Source text: The in vitro dissolution test to evaluate enhanced drug concentration in aqueous solution can be conducted by (1) adding with agitation a sufficient quantity of control composition, that is, the crystalline enzalutamide alone, to the in vitro test medium, typically MFD or PBS solution, to determine the maximum concentration of the enzalutamide achieved under the conditions of the test; (2) adding with agitation a sufficient quantity of test composition (e.g., the enzalutamide and polymer) in an equivalent test medium, such that if all the enzalutamide dissolved, the theoretical concentration of enzalutamide would exceed the observed maximum concentration of enzalutamide by a factor of about 20; and (3) comparing the measured MDC and/or aqueous concentration versus time AUC90 of the test composition in the test medium with the maximum concentration, and/or the aqueous concentration versus time AUC90 of the control composition. In conducting such a dissolution test, the amount of test composition or control composition used is an amount such that if all of the enzalutamide dissolved, the test enzalutamide concentration would be at least about 20-fold that of the control enzalutamide concentration.
The concentration of dissolved enzalutamide is typically measured as a function of time by sampling the test medium and plotting enzalutamide concentration in the test medium vs. time so that the MDC can be ascertained. The MDC is taken to be the maximum value of dissolved enzalutamide measured over the duration of the test. The enzalutamide concentration versus time AUC90 is calculated by integrating the concentration versus time curve over any 90-minute time period between the time of introduction of the composition into the aqueous use environment (time equals zero) and 270 minutes following introduction to the use environment (time equals 270 minutes). Typically, when the composition reaches its MDC rapidly, in less than about 30 minutes, the time interval used to calculate AUC90 is from time equals zero to time equals 90 minutes. However, if the AUC90 over any 90-minute time period described above of a composition meets the criteria of compositions described herein, then the composition is included in compositions of this disclosure. The time period 270 min is chosen because of its physiological relevance. Drug absorption in mammals generally occurs in the small intestine, and the small intestinal transit time in humans is approximately 4.5 hr, or 270 min.
To avoid large enzalutamide particulates which would give an erroneous determination, the test solution is either filtered or centrifuged. “Dissolved enzalutamide” is typically taken as that material that either passes a 0.45 micron syringe filter or, alternatively, the material that remains in the supernatant following centrifugation. Filtration can be conducted using a 13 mm, 0.45 micron polyvinylidine difluoride syringe filter, such as the filter sold by Scientific Resources under the trademark TITAN′. Centrifugation is typically carried out in a polypropylene microcentrifuge tube by centrifuging at 13,000 G for 60 seconds. Other similar filtration or centrifugation methods can be employed and useful results obtained. For example, using other types of microfilters may yield values somewhat higher or lower (+/−10-40%) than that obtained with the filter specified above but will still allow identification of dispersions. It is recognized that this definition of “dissolved enzalutamide” encompasses not only monomeric solvated enzalutamide molecules but also a wide range of species such as polymer/enzalutamide assemblies that have submicron dimensions such as enzalutamide aggregates, aggregates of mixtures of polymer and enzalutamide, micelles, polymeric micelles, colloidal particles, polymer/enzalutamide complexes, and other such enzalutamide-containing species that are present in the filtrate or supernatant in the specified dissolution test. […]

[2] = Glass transition temperature by modulated DSC as a function of relative humidity
Method: Below Tg, an amorphous material is said to be in a “glassy” state in which molecular mobility is severely restricted. […] Glass transition temperatures Tg were determined for amorphous enzalutamide, and for spray-dried dispersions (SDDs) of enzalutamide with HPMCAS-M or PVP-VA64, at <5% and 75% relative humidity (RH). Tgs were determined by modulated differential scanning calorimetry (mDSC), utilizing the following protocol. Samples (about 5 mg) were equilibrated at the desired RH overnight in an environmental chamber at ambient temperature. The samples were then loaded into pans and sealed inside the environmental chamber. The samples were analyzed on a Q1000 mDSC (TA Instruments, New Castle, Delaware). Samples were typically scanned over the temperature range of −40° C. to 180° C., at a scan rate of 2.5° C./min, and a modulation rate of ±1.5° C./min. The data sampling interval was 0.20 sec/point. The Tg was calculated based on half height.

[3] = SEM particle morphology before and after 1 day at 50° C./75% RH; details: after 1 day exposure to 50° C./75% RH
Method: Scanning electron micrographs (SEMs) were obtained for samples before and after 1 day exposure to a 50° C./75% RH environment. After exposure of these samples to this challenging storage environment, no crystals were seen, indicative of the ability of these samples to maintain the amorphous character of enzalutamide. […] Thus these three embodiments would require controlled storage conditions to maintain their efficacy.

[4] = Microcentrifuge dissolution test after suspension in 0.5% methylcellulose for 2 hours
Method: Drugs and drug formulations are sometimes dosed as aqueous suspensions, particularly for pediatric patients. The ability of various enzalutamide SDDs to retain their ability to maintain drug supersaturation in vitro was assessed by using the microcentrifuge dissolution test to measure drug dissolution after suspension in 0.5% methylcellulose in water for 2 hours. Methylcellulose is a standard viscosifying suspending agent which is used to maintain drug particles in suspension in oral suspension dosage forms. The table below presents in vitro dissolution performance before and after suspension in 0.5% methylcellulose.

[5] = Membrane-permeation (MP) dissolution test
Method: The membrane permeability test described in the Examples below is carried out as follows. A drug-permeable membrane is placed between feed and permeate reservoirs. A sufficient quantity of test composition is added to a feed test medium and placed in the feed reservoir, while a water immiscible organic solution, such as a 60/40 mixture of decanol/decane, is placed in the permeate reservoir. Samples are removed from the permeate reservoir and analyzed for the concentration of drug as a function of time. […] Further details of this membrane permeation test are disclosed in U.S. Pat. No. 7,611,630 B2.
The MP-dissolution test, whose details are described above, measures a capability of low solubility drug formulations which is not measured in the microcentrifuge dissolution test utilized in Examples 4 and 7. This test mimics an aspect of the in vivo situation in the GI tract. In the in vivo situation, it is generally accepted that free drug in solution (i.e. individual drug molecules dissolved in the GI medium without association with formulation components) is the species which is absorbed across the gastrointestinal wall into the bloodstream. As free drug is absorbed, the formulation must be capable of supplying more free drug for absorption. The membrane permeation test measures the amount of drug which crosses a polymeric membrane (as a model of the GI wall) over time, and thus reflects the ability of the formulation to resupply free drug in solution to be further passively transported across the polymeric membrane. In Table 8.1 below, Maximum Flux is the maximum observed rate of permeation across the polymeric membrane, based on the slope of the absorption curve over any period within the 240 minute duration of the experiment, normalized for membrane area. Total drug recovery is the % of the initial drug dose which has crossed the membrane when the test ended at 240 minutes.
The membrane permeation test was carried out for 60% A enzalutamide SDDs with HPMCAS-M, HPMC E3 Prem, HPMCP-55, and Eudragit-L100, as described in Example 8.

[6] = 0 hr, before suspension in aqueous 0.5% methylcellulose
[7] = 2 hr, after suspension for 2 hr in aqueous 0.5% methylcellulose
[8] = Table 8.1, within 240 minutes, normalized for membrane area

Compound	Enzalutamide Concentration, 0 min ([1]; 0 min) [µg/mL]	Enzalutamide Concentration, 4 min ([1]; 4 min) [µg/mL]	Enzalutamide Concentration, 10 min ([1]; 10 min) [µg/mL]	Enzalutamide Concentration, 20 min ([1]; 20 min) [µg/mL]	Enzalutamide Concentration, 40 min ([1]; 40 min) [µg/mL]	Enzalutamide Concentration, 90 min ([1]; 90 min) [µg/mL]	Enzalutamide Concentration, 1200 min ([1]; 1200 min) [µg/mL]	AUC90 (area under the curve at 90 minutes) [1]	Cmax, 90 (maximum drug concentration through 90 minutes) [1] [µg/mL]	Maximum Flux [5, 8] [μg/cm^2 × min]	other results
CNC(=O)c1ccc(N2C(=S)N(c3ccc(C#N)c(C(F)(F)F)c3)C(=O)C2(C)C)cc1F [Amorphous (spray-dried) enzalutamide - BREC-0035-09B(V)]	0.0	61	100	100	110	120	30	9,500 min*μg/mL	120	1.3	Tg ([2]; 75% RH): 64.0 °C; Tg ([2]; <5% RH): 88.5 °C; fusion of particles to larger particles by SEM after storage challenge [3]: fusion of particles to form larger particles; AUC90 [4, 6]: 8,900 min · mcg/ml; Cmax 90 [4, 6]: 110 µg/mL; AUC90 [4, 7]: 8,800 min · mcg/ml; Cmax 90 [4, 7]: 100 µg/mL
CNC(=O)c1ccc(N2C(=S)N(c3ccc(C#N)c(C(F)(F)F)c3)C(=O)C2(C)C)cc1F [Crystalline enzalutamide (Control 1)]	0.0	1	3	5	6	7	9	500 µg·min/mL	7	0.4	In vitro dissolution, Average, 0 min ([1]; Table 9.1, 0 min): 0.32 µg/mL; In vitro dissolution, Average, 4 min ([1]; Table 9.1, 4 min): 5.23 µg/mL; In vitro dissolution, Average, 10 min ([1]; Table 9.1, 10 min): 8.04 µg/mL; In vitro dissolution, Average, 20 min ([1]; Table 9.1, 20 min): 7.69 µg/mL; In vitro dissolution, Average, 40 min ([1]; Table 9.1, 40 min): 8.65 µg/mL; In vitro dissolution, Average, 90 min ([1]; Table 9.1, 90 min): 9.14 µg/mL; In vitro dissolution, Average, 1200 min ([1]; Table 9.1, 1200 min): 12.12 µg/mL; AUC90 min ([1]; Table 9.2): 740 µg·min/mL; Cmax, 90 min ([1]; Table 9.2): 10 µg/mL; Maximum Flux ([5]; Table 9.3): 0.4 μg/cm^2-min
